Test results reported in ChEMBL document CHEMBL1144078, “Activity-guided isolation of triterpenoid acyl CoA cholesteryl acyl transferase (ACAT) inhibitors from Ilex kudincha” (J Nat Prod, 1999).

Each compound was assayed against T1, Sterol O-acyltransferase 1 (Rattus norvegicus, UniProt O70536) (assay: Inhibition of rat liver microsomal ACAT).
T1 sequence (O70536 whole entry): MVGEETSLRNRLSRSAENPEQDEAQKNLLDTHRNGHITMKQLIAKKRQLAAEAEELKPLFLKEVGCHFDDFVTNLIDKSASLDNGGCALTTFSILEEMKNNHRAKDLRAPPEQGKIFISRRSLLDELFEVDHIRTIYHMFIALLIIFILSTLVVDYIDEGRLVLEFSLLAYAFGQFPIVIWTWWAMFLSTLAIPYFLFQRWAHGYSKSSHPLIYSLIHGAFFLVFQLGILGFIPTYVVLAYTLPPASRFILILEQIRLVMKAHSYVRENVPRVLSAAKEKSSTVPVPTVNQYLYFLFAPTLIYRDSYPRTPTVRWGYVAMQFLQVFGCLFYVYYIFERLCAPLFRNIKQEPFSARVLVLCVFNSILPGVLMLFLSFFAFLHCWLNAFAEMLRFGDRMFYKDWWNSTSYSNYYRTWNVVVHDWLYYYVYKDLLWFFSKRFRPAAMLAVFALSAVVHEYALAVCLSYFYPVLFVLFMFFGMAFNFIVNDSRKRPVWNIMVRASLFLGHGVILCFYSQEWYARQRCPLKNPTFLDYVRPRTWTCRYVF
Work on `C[C@H]1[C@H](C)CC[C@]2(C(=O)O)CC[C@]3(COC(=O)/C=C/c4ccc(O)cc4)C(=CC[C@@H]4[C@@]5(C)CC[C@H](O)C(C)(C)[C@@H]5CC[C@]43C)[C@H]12` yielded an IC50 of 73 µM. In the case of `C[C@H]1[C@H](C)CC[C@]2(C(=O)O)CC[C@]3(COC(=O)/C=C\c4ccc(O)cc4)C(=CC[C@@H]4[C@@]5(C)CC[C@H](O)[C@@](C)(CO)[C@@H]5CC[C@]43C)[C@H]12`, the IC50 is reported as 194 µM. `C[C@H]1[C@H](C)CC[C@]2(C(=O)O)CC[C@]3(C)C(=CC[C@@H]4[C@@]5(C)CC[C@H](O)[C@@](C)(CO)[C@@H]5CC[C@]43C)[C@H]12` showed an IC50 of 64 µM. With `C=C1[C@@H](O)[C@H](O)C[C@]2(C)[C@H]3C=C[C@]45OC(=O)[C@@]6(CC[C@@H](C)[C@H](C)[C@H]64)CC[C@@]5(C)[C@]3(C)CC[C@@H]12` [ILEKUDINOL A] the IC50 was 154 µM. `C=C1[C@@H](O)[C@H](O)C[C@]2(C)[C@H]3CC=C4[C@@H]5[C@@H](C)[C@H](C)CC[C@]5(C(=O)O)CC[C@@]4(C)[C@]3(C)CC[C@@H]12` [ILEKUDINOL B] was tested, and the IC50 was 44 µM. For `C=C(C)[C@@H]1CC[C@]2(CO)CC[C@]3(C)[C@H](CC[C@@H]4[C@@]5(C)CC[C@H](O)[C@](C)(CO)[C@@H]5CC[C@]43C)[C@@H]12` [ILEKUDINOL C], the IC50 was 328 µM. With `C=C1[C@@H](O)[C@H](O)C[C@]2(C)[C@H]3[C@@H]4O[C@@H]4[C@]45OC(=O)[C@@]6(CC[C@@H](C)[C@H](C)[C@H]64)CC[C@@]5(C)[C@]3(C)CC[C@@H]12` [ULMOIDOL] the IC50 was 468 µM.
